{"source": "patent US8236791B2", "about": "“Assays for S100 inhibitors” (Albert Einstein College of Medicine of Yeshiva University, priority 2005, dated 2012)", "key": {"S100A4 [1]": {"target": "T1, S100A4 (Homo sapiens, UniProt P26447)", "T1 construct": "It is a chemical label, not a fused protein", "T1 sequence (P26447 whole entry C3A/C76A/C86A, form open, the tested form may be a part)": "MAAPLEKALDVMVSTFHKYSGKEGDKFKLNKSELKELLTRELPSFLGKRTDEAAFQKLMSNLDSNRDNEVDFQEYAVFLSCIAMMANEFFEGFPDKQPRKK", "test": "S100A4 biosensor (Mero-S100A4) fluorescence assay for S100A4 inhibitors", "type": "biochemical", "settings": "screening assay: 5 μM S100A4 biosensor (dimer), 100 μM FDA approved drug, 0.3 mM CaCl2; controls: no addition 8475, calcium 14996, calcium + EGTA 6088", "from_the_text": "We produced and characterized a fluorescent analog of S100A4 (Mero-S100A4) that reports calcium binding, and thus serves to identify activated S100A4 (Garrett et al., 2004). To produce the S100A4 biosensor that monitors protein activation (i.e., calcium binding) Cys81 was derivatized with the ISO-IAA dye to a stoichiometry of 1:1 (FIG. 2).\nBinding of the Mero-S100A4 to myosin-IIA results in only a small increase in fluorescence intensity (FIG. 3, right panel). These observations indicate that the S100A4 biosensor reports only calcium binding and not target binding. In addition, calcium binding studies indicate that mutagenesis and dye attachment have not altered the binding affinity of the labeled S100A4 for calcium (data not shown).\nA total of 333 FDA approved drugs were tested for their ability to inhibit S100A4, using the biosensor described in Example 1. Screening assays used 5 μM S100A4 biosensor (dimer concentration), 100 μM FDA approved drug, buffer: 50 mM Tris-HCl, pH 7.5, 150 mM NaCl, 0.3 mM CaCl2, 0.02% NaN3, 1 mM DTT, 10% DMSO. […] 100 μl assay volume."}, "S100A4 [2]": {"target": "T1, S100A4", "test": "S100A4 biosensor (Mero-S100A4) fluorescence assay for S100A4 inhibitors", "type": "biochemical", "settings": "5 μM S100A4 biosensor, 0-400 μM small molecule inhibitor, 0.3 mM CaCl2 buffer"}}}
{"smiles": "CC(=O)N1CCN(c2ccc(OCC3COC(Cn4ccnc4)(c4ccc(Cl)cc4Cl)O3)cc2)CC1", "note": "(stereo not drawn) [ketoconazole]", "values": [{"measurement": "Arbitrary Fluorescence Units", "setting": "S100A4 [1]", "result": "7759 Arbitrary Fluorescence Units"}, {"measurement": "IC50", "setting": "S100A4 [2]", "result": 23, "unit": "µM"}]}
{"smiles": "OCCN1CCN(CC/C=C2/c3ccccc3Sc3ccc(C(F)(F)F)cc32)CC1", "note": "[flupenthixol-cis]", "values": [{"measurement": "Arbitrary Fluorescence Units", "setting": "S100A4 [1]", "result": "6449 Arbitrary Fluorescence Units"}, {"measurement": "IC50", "setting": "S100A4 [2]", "result": 59, "unit": "µM"}]}
{"smiles": "CN1CCC(=C2c3ccccc3C=Cc3ccccc32)CC1", "note": "[cyproheptadine]", "values": [{"measurement": "IC50", "setting": "S100A4 [2]", "result": 256, "unit": "µM"}]}
{"smiles": "CN(C)CC/C=C1/c2ccccc2Sc2ccc(Cl)cc21", "note": "[chlorprothixene]", "values": [{"measurement": "Arbitrary Fluorescence Units", "setting": "S100A4 [1]", "result": "7977 Arbitrary Fluorescence Units"}, {"measurement": "IC50", "setting": "S100A4 [2]", "result": 145, "unit": "µM"}]}
{"smiles": "CN(C)CCCN1c2ccccc2CCc2ccc(Cl)cc21", "note": "[clomipramine]", "values": [{"measurement": "Arbitrary Fluorescence Units", "setting": "S100A4 [1]", "result": "7898 Arbitrary Fluorescence Units"}, {"measurement": "IC50", "setting": "S100A4 [2]", "result": 133, "unit": "µM"}]}
{"smiles": "CC(C)COCC(CN(Cc1ccccc1)c1ccccc1)N1CCCC1", "note": "(stereo not drawn) [bepridil]", "values": [{"measurement": "Arbitrary Fluorescence Units", "setting": "S100A4 [1]", "result": "6954 Arbitrary Fluorescence Units"}, {"measurement": "IC50", "setting": "S100A4 [2]", "result": 35, "unit": "µM"}]}
{"smiles": "CN1CCN(CCCN2c3ccccc3Sc3ccc(C(F)(F)F)cc32)CC1", "note": "[trifluoperazine]", "values": [{"measurement": "Arbitrary Fluorescence Units", "setting": "S100A4 [1]", "result": "7939 Arbitrary Fluorescence Units"}, {"measurement": "IC50", "setting": "S100A4 [2]", "result": 34, "unit": "µM"}]}
{"smiles": "OCCN1CCN(CCCN2c3ccccc3Sc3ccc(C(F)(F)F)cc32)CC1", "note": "[fluphenazine]", "values": [{"measurement": "Arbitrary Fluorescence Units", "setting": "S100A4 [1]", "result": "6908 Arbitrary Fluorescence Units"}, {"measurement": "IC50", "setting": "S100A4 [2]", "result": 46, "unit": "µM"}]}
{"smiles": "CN1CCN(CCCN2c3ccccc3Sc3ccc(Cl)cc32)CC1", "note": "[prochlorperazine]", "values": [{"measurement": "Arbitrary Fluorescence Units", "setting": "S100A4 [1]", "result": "5505 Arbitrary Fluorescence Units"}, {"measurement": "IC50", "setting": "S100A4 [2]", "result": 33, "unit": "µM"}]}
{"smiles": "CN(C)C(=O)C(CCN1CCC(O)(c2ccc(Cl)cc2)CC1)(c1ccccc1)c1ccccc1", "note": "[loperamide]", "values": [{"measurement": "Arbitrary Fluorescence Units", "setting": "S100A4 [1]", "result": "3820 Arbitrary Fluorescence Units"}, {"measurement": "IC50", "setting": "S100A4 [2]", "result": 18, "unit": "µM"}]}
{"smiles": "OCCN1CCN(CCCN2c3ccccc3Sc3ccc(Cl)cc32)CC1", "note": "[perphenazine]", "values": [{"measurement": "Arbitrary Fluorescence Units", "setting": "S100A4 [1]", "result": "7399 Arbitrary Fluorescence Units"}, {"measurement": "IC50", "setting": "S100A4 [2]", "result": 164, "unit": "µM"}]}
